Measured values as given in the NIST ThermoML archive (doi:10.1021/acs.jced.9b00011).
± gives the expanded uncertainty stated by the source.

Legend:
[1] = Crystal; DSC
[2] = Molar enthalpy of transition or fusion; conditions: Crystal; DSC

Triple point temperature [1] [K]	Molar enthalpy of transition or fusion [2] [kcal/mol]	Structure (SMILES)
352.56 ± 2.3	5.55 ± 1.1	COc1ccc(OC)c(N)c1 [2,5-dimethoxyaniline]
389.38 ± 3.7	5.88 ± 0.908	COc1cc(Cl)c(OC)cc1N [4-chloro-2,5-dimethoxyaniline]
